For 15 compounds, IC50 results are on record in patent US10717746B2, “Chemical compounds” (ASTRAZENECA AB, priority 2015, dated 2020).

pIC50: −log10 of the molar value.

As a reminder, the pIC50 is the negative decadic logarithm of the IC50, by convention in mol/L.

For experiment [1], the target named is T1, CDK9/CycT1 (Homo sapiens (Human), UniProt P50750). As to the kind of experiment: CDK9 kinase assay, ATP concentration at Km (mobility shift, Caliper LC3000). The experiment is classed as biochemical. To be noted: 6 μM ATP, 3 nM CDK9/CycT1; read-out: CDK9 ATP conc. at Km (IC50). As to the method: (§1) Activity of CDK9 was determined in-vitro using a mobility shift assay on a Caliper LC3000 reader (Caliper/PerkinElmer), which measures fluorescence of a phosphorylated and unphosphorylated fluorescent peptide substrate and calculates a ratiometric value to determine percent turnover. Phosphorylation of the peptide in the presence and absence of the compound of interest was determined. Enzyme/substrate/adenosine triphosphate (ATP) mix (3 nM CDK9/CycT1, 6 μM ATP, 1.5 μM CDK9 peptide substrate (FITC-X-GSRTPMY-NH2 (X: epsilon aminocaproic acid)), 50 mM HEPES (pH7.2), 1 mM dithiothreitol, 0.01% tween 20, 50 μg/mL bovine serum albumin, (final assay concentration)) (5 μl) was preincubated with 2 μl of compound for 15 minutes at 25° C. Reactions were initiated with 5 μl of 24 mM MgCl2 (10 mM final assay concentration) in buffer (50 mM HEPES (pH7.2), 1 mM dithiothreitol, 0.01% tween 20, 50 μg/mL bovine serum albumin, (final assay concentration) and incubated at 25° C. for 90 minutes and reactions were stopped by addition of 5 μl of Stop mix consisting of 65 mM HEPES (pH7.2), 35.5 mM EDTA, 0.227% Coatin Reagent 3 (Caliper/PerkinElmer), and 0.003% Tween. Phosphorylated and unphosphorylated substrate was detected by a Caliper LC3000 reader (Caliper/PerkinElmer) in the presence of separation buffer consisting of 100 mM HEPES (pH7.2), 15.8 mM EDTA, 0.1% Coatin Reagent 3 (Caliper/PerkinElmer), 0.015% Brij-35, 5% DMSO, and 5.6 mM MgCl2. CDK9 enzyme was acquired from Carna Biosciences (Catalogue number 04-110), the CDK9 peptide substrate was acquired from Intonation (Boston, Mass.; Custom-made).

Experiment [2] concerns the target T1, CDK9/CycT1. The experiment can be described thus: CDK9 kinase assay, high ATP concentration (5 mM ATP). The format is biochemical. To be noted: 1.5 nM CDK9, read-out: CDK9 High ATP conc. (IC50). As to the method:
as §1
High ATP assays were run the same way with the following modifications: the final assay concentration of CDK9 was 1.5 nM and the final assay concentration of ATP was 5 mM.

The subject of experiment [3] is phosphorylation of RNA Polymerase II (RNAPII) at the Ser2 site in MCF7 cells. The experiment can be described thus: MCF7 pSer2 RNAPII MOA assay (immunofluorescence). The format is cell-based. The settings on record: Homo sapiens, MCF7, 6 h, 6-hr treatment, read-out: p-Ser 2 RNAPII (IC50). The method, then:
MCF7 pSer2 RNAPII MOA Assay
This is an immunofluorescence assay to determine the effect of CDK9 inhibitors on phosphorylation of RNA Polymerase II (RNAPII) at the Ser2 site in the breast cancer cell line, MCF7. On day one, 2500 MCF7 cells/well were seeded in 30 μl of growth media (RPMI+10% FBS+1% L-Glu+P/S) in 384-well black-wall clear-bottom plates, incubate plates overnight at 37° C. incubator. On the second day, the cells were treated with CDK9 inhibitors (7 point dose response ranging from 3 μM to 0.004 μM) using an ECHO liquid handler (Labcyte). After 6-hr treatment at 37° C. incubator, the cells were fixed with 30 µl/well 7.4% paraformaldehyde for 15 min at room temperature; the cells were washed twice with PBS, then permeabilized with 0.3% Triton X/PBS for 5 min at room temperature. After washing cells with PBS, the cells were incubated with 1:2000 diluted Anti-Ser2 Phospho-RNA pol II antibody (Covance MMS-129R) in 3% FBS/0.1% PBST overnight at 4° C. On the next day, the cells were washed twice with 0.1% PBST, then incubated with 1:1000 diluted Alexa Fluor 488 Goat-anti-mouse antibody (Life Technologies A-11001) and 1:4000 diluted DAPI at room temperature in dark. After one hour incubation, the cells were washed twice with 0.1% PBST, and once with PBS. The plates where sealed and read on an Acumen eX3 microplate cytometer (TTP Labtech) to assess phosphorylation level in each well.

Another experiment has as its system MV411 cells. The experiment can be described thus: MV411 caspase activity assay (Caspase-Glo 3/7). The format is cell-based. To be noted: Homo sapiens, MV4-11, 6 h, 6-hr treatment, caspase 3/7 induction. As to the method:
MV411 Caspase Activity Assay
This is a cell assay to measure the induction of caspase activity in the acute myeloid leukemia cell line, MV411 after 6-hr treatment with CDK9 inhibitors. On the first day, 3000 MV411 cells/well were seeded in 50 μl of growth media (IMDM+10% FBS+2% L-Glu+P/S) in 384-well white plates, incubate plates in 37° C. incubator overnight. […] After 6 hour incubation in 37° C. incubator, 25 μl of Caspase-Glo 3/7 reagent (Promega) per well was added into each well, and plates were incubated at room temperature for 30 min in dark. The plates were read on an Infinite M200 microplate reader (Tecan) with a 100 ms integration time.

T1 sequence (P50750 whole entry): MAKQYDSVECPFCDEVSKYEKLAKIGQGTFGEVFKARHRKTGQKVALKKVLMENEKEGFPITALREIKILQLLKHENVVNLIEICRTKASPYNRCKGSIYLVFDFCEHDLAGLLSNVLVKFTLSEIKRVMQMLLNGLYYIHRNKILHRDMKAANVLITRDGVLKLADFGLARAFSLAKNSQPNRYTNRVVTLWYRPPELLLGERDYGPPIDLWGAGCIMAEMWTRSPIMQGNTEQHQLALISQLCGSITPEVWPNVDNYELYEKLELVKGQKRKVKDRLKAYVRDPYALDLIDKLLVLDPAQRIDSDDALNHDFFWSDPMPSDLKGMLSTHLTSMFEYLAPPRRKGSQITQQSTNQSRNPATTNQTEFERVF
T1 sequence (O60563 whole entry partner): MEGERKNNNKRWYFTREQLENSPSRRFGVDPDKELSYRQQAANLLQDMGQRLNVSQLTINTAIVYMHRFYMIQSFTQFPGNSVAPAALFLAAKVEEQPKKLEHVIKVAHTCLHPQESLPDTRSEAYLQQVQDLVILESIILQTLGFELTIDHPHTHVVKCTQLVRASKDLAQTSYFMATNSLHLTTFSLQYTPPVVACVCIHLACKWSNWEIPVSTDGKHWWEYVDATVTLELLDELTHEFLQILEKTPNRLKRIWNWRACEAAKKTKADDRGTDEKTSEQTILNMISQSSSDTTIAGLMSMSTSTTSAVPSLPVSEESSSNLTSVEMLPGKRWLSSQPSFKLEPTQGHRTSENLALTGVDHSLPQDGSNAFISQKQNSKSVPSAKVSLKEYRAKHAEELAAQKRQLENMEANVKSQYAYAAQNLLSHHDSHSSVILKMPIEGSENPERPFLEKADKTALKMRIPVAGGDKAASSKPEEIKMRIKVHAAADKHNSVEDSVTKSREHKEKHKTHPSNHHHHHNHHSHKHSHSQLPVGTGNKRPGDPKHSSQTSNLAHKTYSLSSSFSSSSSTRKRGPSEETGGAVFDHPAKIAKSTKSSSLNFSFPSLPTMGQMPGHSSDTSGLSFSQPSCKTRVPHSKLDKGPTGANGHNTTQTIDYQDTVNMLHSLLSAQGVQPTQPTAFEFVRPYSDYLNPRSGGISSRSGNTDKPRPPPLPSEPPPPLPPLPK

Consider `CC(=O)N[C@@H]1CCC[C@H](C(=O)Nc2cc(-c3cnn4c3CC(C)(C)C4)ccn2)C1` [Example 16, (1S,3R)-3-acetamido-N-(4-(5,5-dimethyl-5,6-dihydro-4H-pyrrolo[1,2-b]pyrazol-3-yl)pyridin-2-yl)cyclohexanecarboxamide], for which the pIC50 on CDK9/CycT1 [1] is over 8.52; at CDK9/CycT1 [2] it was 7.55; in experiment [3] it was 6.82; in the experiment on MV411 cells it was 7.00.

Take `CC1(C)Cc2c(-c3ccnc(NC(=O)[C@H]4CCC[C@@H](NC(=O)C5(O)CC5)C4)c3)cnn2C1` [Example 17, (1S,3R)—N-(4-(5,5-dimethyl-5,6-dihydro-4H-pyrrolo[1,2-b]pyrazol-3-yl)pyridin-2-yl)-3-(1-hydroxycyclopropanecarboxamido)cyclohexanecarboxamide]: the pIC50 on CDK9/CycT1 [1] is 8.40; on CDK9/CycT1 [2] it was 7.44; in experiment [3], 6.68; with MV411 cells, 6.85.

For the compound `CC1(C)Cc2c(-c3ccnc(NC(=O)[C@H]4CCC[C@@H](NC(=O)C5COC5)C4)c3)cnn2C1` [Example 18, N-((1R,3S)-3-((4-(5,5-dimethyl-5,6-dihydro-4H-pyrrolo[1,2-b]pyrazol-3-yl)pyridin-2-yl)carbamoyl)cyclohexyl)oxetane-3-carboxamide], the pIC50 at CDK9/CycT1 [1] is over 8.52; on CDK9/CycT1 [2] it was 7.85; in experiment [3], 6.91; with MV411 cells, 7.15.

As for `CC1(C)Cc2c(-c3cc(NC(=O)[C@H]4CCC[C@@H](NC(=O)C5COC5)C4)ncc3Cl)cnn2C1` [Example 19, N-((1R,3S)-3-((5-chloro-4-(5,5-dimethyl-5,6-dihydro-4H-pyrrolo[1,2-b]pyrazol-3-yl)pyridin-2-yl)carbamoyl)cyclohexyl)oxetane-3-carboxamide], the pIC50 on CDK9/CycT1 [1] was over 8.52; at CDK9/CycT1 [2] it was over 8.52; in experiment [3] it was 7.89; in the experiment with MV411 cells it was 7.96.

In the case of `C[C@H](O)C(=O)N[C@@H]1CCC[C@H](C(=O)Nc2cc(-c3cnn4c3CC(C)(C)C4)c(Cl)cn2)C1` [Example 20, (1S,3R)—N-(5-chloro-4-(5,5-dimethyl-5,6-dihydro-4H-pyrrolo[1,2-b]pyrazol-3-yl)pyridin-2-yl)-3-((S)-2-hydroxypropanamido)cyclohexanecarboxamide], the pIC50 on CDK9/CycT1 [1] is over 8.52; at CDK9/CycT1 [2], over 8.52; in experiment [3], 8.00; in the experiment with MV411 cells, 7.85.

For the compound `CC1(C)Cc2c(-c3cc(NC(=O)[C@H]4CCC[C@@H](NC(=O)C5(O)CC5)C4)ncc3Cl)cnn2C1` [Example 21, (1S,3R)—N-(5-chloro-4-(5,5-dimethyl-5,6-dihydro-4H-pyrrolo[1,2-b]pyrazol-3-yl)pyridin-2-yl)-3-(1-hydroxycyclopropanecarboxamido)cyclohexanecarboxamide], the pIC50 was over 8.52 at CDK9/CycT1 [1], over 8.52 at CDK9/CycT1 [2], over 8.15 in experiment [3] and 7.89 with MV411 cells.

With `CC1(C)Cc2c(-c3cc(NC(=O)[C@H]4CCC[C@@H](NC(=O)[C@@H]5CCOC5)C4)ncc3Cl)cnn2C1` [Example 23, (R)—N-((1R,3S)-3-((5-chloro-4-(5,5-dimethyl-5,6-dihydro-4H-pyrrolo[1,2-b]pyrazol-3-yl)pyridin-2-yl)carbamoyl)cyclohexyl)tetrahydrofuran-3-carboxamide], the pIC50 is over 8.52 on CDK9/CycT1 [1], over 8.52 at CDK9/CycT1 [2], 8.22 in experiment [3] and 7.92 in the experiment with MV411 cells.

In the case of `CC1(C)Cc2c(-c3cc(NC(=O)[C@H]4CCC[C@@H](NC(=O)[C@H]5CCOC5)C4)ncc3Cl)cnn2C1` [Example 24, (S)—N-((1R,3S)-3-((5-chloro-4-(5,5-dimethyl-5,6-dihydro-4H-pyrrolo[1,2-b]pyrazol-3-yl)pyridin-2-yl)carbamoyl)cyclohexyl)tetrahydrofuran-3-carboxamide], the pIC50 is over 8.52 at CDK9/CycT1 [1], 8.40 on CDK9/CycT1 [2], 7.96 in experiment [3] and 7.82 in the experiment with MV411 cells.

Consider `CC(=O)N[C@@H]1CCC[C@H](C(=O)Nc2cc(-c3cnn4c3CC(C)(C)C4)c(F)cn2)C1` [Example 25, (1S,3R)-3-acetamido-N-(4-(5,5-dimethyl-5,6-dihydro-4H-pyrrolo[1,2-b]pyrazol-3-yl)-5-fluoropyridin-2-yl)cyclohexanecarboxamide], for which the pIC50 was over 8.52 on CDK9/CycT1 [1], 8.40 at CDK9/CycT1 [2], 7.60 in experiment [3] and 7.54 in the experiment on MV411 cells.

Consider `CC1(C)Cc2c(-c3ccnc(NC(=O)[C@H]4C[C@@H](O)C4)c3)cnn2C1` [Example 26, cis-N-(4-(5,5-dimethyl-5,6-dihydro-4H-pyrrolo[1,2-b]pyrazol-3-yl)pyridin-2-yl)-3-hydroxycyclobutanecarboxamide], for which the negative-log IC50 (pIC50) at CDK9/CycT1 [1] is over 8.52; on CDK9/CycT1 [2], 7.03; in experiment [3] it was 6.91; with MV411 cells, 6.82.

In the case of `CC1(C)Cc2c(-c3cc(NC(=O)[C@H]4C[C@@H](O)C4)ncc3Cl)cnn2C1` [Example 27, cis-N-(5-chloro-4-(5,5-dimethyl-5,6-dihydro-4H-pyrrolo[1,2-b]pyrazol-3-yl)pyridin-2-yl)-3-hydroxycyclobutanecarboxamide], the negative logarithm of the IC50 (pIC50) at CDK9/CycT1 [1] is over 8.52; at CDK9/CycT1 [2] it was 7.60; in experiment [3], 7.36; with MV411 cells it was 7.42.

Turning to `CC(=O)N[C@@H]1CCC[C@H](C(=O)Nc2cc(-c3cnn4c3CCCC4)ncn2)C1` [Example 28, (1S,3R)-3-acetamido-N-(6-(4,5,6,7-tetrahydropyrazolo[1,5-a]pyridin-3-yl)pyrimidin-4-yl)cyclohexanecarboxamide], the pIC50 was 7.44 at CDK9/CycT1 [1], 5.33 on CDK9/CycT1 [2], under 5.52 in experiment [3] and 5.18 with MV411 cells.

For the compound `O=C(Nc1cc(-c2cnn3c2CCCC3)ncn1)[C@H]1C[C@H](O)C1` [Example 29, trans-3-hydroxy-N-(6-(4,5,6,7-tetrahydropyrazolo[1,5-a]pyridin-3-yl)pyrimidin-4-yl)cyclobutanecarboxamide], the pIC50 on CDK9/CycT1 [1] was 7.20; at CDK9/CycT1 [2], 5.12; in experiment [3] it was under 5.58; with MV411 cells, 5.14.

Regarding `CC(=O)N[C@@H]1CCC[C@H](C(=O)Nc2cc(-c3cnn4c3CC(C)(C)C4)ncn2)C1` [Example 30, (1S,3R)-3-acetamido-N-(6-(5,5-dimethyl-5,6-dihydro-4H-pyrrolo[1,2-b]pyrazol-3-yl)pyrimidin-4-yl)cyclohexanecarboxamide], the pIC50 on CDK9/CycT1 [1] was 8.15; at CDK9/CycT1 [2], 6.22; in experiment [3], 5.90; in the experiment with MV411 cells, 5.98.

On to `N#CCC(=O)N[C@@H]1CCC[C@H](C(=O)Nc2cc(-c3cnn4c3CCCC4)c(Cl)cn2)C1` [Example 31, (1S,3R)—N-(5-chloro-4-(4,5,6,7-tetrahydropyrazolo[1,5-a]pyridin-3-yl)pyridin-2-yl)-3-(2-cyanoacetamido)cyclohexanecarboxamide], for which the pIC50 at CDK9/CycT1 [1] was over 8.52; on CDK9/CycT1 [2], 7.92; in experiment [3], 7.44; in the experiment with MV411 cells, 7.05.
